Experimental data reported in publication PMC10004634 (PLOS ONE, 2023).
Like-named read-outs stand apart in the source and are kept apart here.

Tests used:
Test in all cases: biochemical
Parameters in all cases: KINOMEscan scanMAX competition binding, DNA-tagged kinases, qPCR read-out, percent control at 300 nM
[1] = biological target: T1, ABL1(F317L)-phosphorylated (Homo sapiens, UniProt P00519, F317L)
T1 construct: phosphorylated

AMPK-alpha2 = biological target: T2, AMPK-alpha2 (Homo sapiens, UniProt P54646)
T2 construct: gene PRKAA2

ANKK1 = ANKK1 (Homo sapiens, UniProt Q8NFD2)
CAMKK2 = CAMKK2 (Homo sapiens, UniProt Q96RR4)
CDKL1 = CDKL1 (Homo sapiens, UniProt Q00532)
ERK8 = biological target: T3, ERK8 (Homo sapiens, UniProt Q8TD08)
T3 construct: gene MAPK15

FGFR4 = FGFR4 (Homo sapiens, UniProt P22455)
FLT3(D835Y) = FLT3(D835Y) (Homo sapiens, UniProt P36888, D835Y)
GSK3A = GSK3A (Homo sapiens, UniProt P49840)
LKB1 = biological target: T4, LKB1 (Homo sapiens, UniProt Q15831)
T4 construct: gene STK11

MAPKAPK2 = MAPKAPK2 (Homo sapiens, UniProt P49137)
MEK3 = biological target: T5, MEK3 (Homo sapiens, UniProt P46734)
T5 construct: gene MAP2K3

NIM1 = biological target: T6, NIM1 (Homo sapiens, UniProt Q8IY84)
T6 construct: gene NIM1K

PAK4 = PAK4 (Homo sapiens, UniProt O96013)
PFTK1 = biological target: T7, PFTK1 (Homo sapiens, UniProt O94921)
T7 construct: gene CDK14

RAF1 = RAF1 (Homo sapiens, UniProt P04049)
RET(V804L) = RET(V804L) (Homo sapiens, UniProt P07949, V804L)
FGFR1 = FGFR1 (Homo sapiens, UniProt P11362)
FLT3(D835H) = FLT3(D835H) (Homo sapiens, UniProt P36888, D835H)
MST4 = biological target: T8, MST4 (Homo sapiens, UniProt Q9P289)
T8 construct: gene STK26

MYLK4 = MYLK4 (Homo sapiens, UniProt Q86YV6)
PDPK1 = PDPK1 (Homo sapiens, UniProt O15530)
TLK1 = TLK1 (Homo sapiens, UniProt Q9UKI8)
[2] = read-out: Percent control / Acalabrutinib
[3] = read-out: Percent control / Ibrutinib
[4] = read-out: Percent control / Tirabrutinib
[5] = read-out: Percent control / Zanubrutinib

Sequence of FGFR4 (P22455 whole entry): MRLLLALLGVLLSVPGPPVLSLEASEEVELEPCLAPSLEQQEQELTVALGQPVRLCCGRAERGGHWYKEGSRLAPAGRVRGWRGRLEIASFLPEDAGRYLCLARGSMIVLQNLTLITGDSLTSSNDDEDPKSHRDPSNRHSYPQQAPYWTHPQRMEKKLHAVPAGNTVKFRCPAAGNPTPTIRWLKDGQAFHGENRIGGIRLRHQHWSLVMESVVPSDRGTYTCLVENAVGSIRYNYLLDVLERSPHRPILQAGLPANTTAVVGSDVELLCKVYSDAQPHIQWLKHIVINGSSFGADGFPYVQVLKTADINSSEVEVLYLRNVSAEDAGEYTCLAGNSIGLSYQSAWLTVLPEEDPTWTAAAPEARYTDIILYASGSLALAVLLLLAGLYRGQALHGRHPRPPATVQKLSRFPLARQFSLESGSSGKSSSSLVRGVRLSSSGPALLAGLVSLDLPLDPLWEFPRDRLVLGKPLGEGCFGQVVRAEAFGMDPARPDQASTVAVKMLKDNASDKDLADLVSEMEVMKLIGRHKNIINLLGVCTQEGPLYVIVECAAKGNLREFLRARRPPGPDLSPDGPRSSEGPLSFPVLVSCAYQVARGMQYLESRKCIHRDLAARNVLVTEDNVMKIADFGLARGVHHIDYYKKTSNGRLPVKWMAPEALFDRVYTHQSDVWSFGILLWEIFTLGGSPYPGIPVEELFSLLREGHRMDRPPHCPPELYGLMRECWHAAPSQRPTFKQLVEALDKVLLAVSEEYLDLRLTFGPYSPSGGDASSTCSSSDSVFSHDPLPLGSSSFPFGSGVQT
Sequence of MYLK4 (Q86YV6 whole entry): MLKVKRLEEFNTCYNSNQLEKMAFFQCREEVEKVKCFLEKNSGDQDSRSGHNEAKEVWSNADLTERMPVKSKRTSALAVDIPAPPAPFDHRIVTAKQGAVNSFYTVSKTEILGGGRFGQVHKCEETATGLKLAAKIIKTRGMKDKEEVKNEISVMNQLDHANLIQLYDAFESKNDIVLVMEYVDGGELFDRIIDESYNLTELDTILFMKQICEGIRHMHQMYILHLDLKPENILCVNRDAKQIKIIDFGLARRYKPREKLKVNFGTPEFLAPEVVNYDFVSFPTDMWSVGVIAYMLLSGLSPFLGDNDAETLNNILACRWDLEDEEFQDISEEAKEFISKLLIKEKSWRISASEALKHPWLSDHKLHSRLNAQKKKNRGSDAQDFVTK
Sequence of PAK4 (O96013 whole entry): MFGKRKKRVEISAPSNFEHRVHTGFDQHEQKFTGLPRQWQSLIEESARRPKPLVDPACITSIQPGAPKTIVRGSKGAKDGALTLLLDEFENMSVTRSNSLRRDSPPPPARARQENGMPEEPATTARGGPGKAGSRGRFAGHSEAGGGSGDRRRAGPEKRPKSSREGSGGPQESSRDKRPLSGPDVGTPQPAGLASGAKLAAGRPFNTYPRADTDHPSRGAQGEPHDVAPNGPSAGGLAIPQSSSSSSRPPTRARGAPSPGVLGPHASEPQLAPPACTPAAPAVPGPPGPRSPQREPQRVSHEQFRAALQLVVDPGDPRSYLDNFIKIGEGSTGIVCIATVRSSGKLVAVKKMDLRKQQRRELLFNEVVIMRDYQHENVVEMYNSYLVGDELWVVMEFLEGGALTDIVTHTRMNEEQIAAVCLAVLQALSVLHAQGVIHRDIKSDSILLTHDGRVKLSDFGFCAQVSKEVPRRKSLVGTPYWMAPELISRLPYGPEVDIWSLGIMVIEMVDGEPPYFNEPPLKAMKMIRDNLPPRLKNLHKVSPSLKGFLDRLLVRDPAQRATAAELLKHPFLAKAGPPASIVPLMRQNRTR
Sequence of MAPKAPK2 (P49137 whole entry): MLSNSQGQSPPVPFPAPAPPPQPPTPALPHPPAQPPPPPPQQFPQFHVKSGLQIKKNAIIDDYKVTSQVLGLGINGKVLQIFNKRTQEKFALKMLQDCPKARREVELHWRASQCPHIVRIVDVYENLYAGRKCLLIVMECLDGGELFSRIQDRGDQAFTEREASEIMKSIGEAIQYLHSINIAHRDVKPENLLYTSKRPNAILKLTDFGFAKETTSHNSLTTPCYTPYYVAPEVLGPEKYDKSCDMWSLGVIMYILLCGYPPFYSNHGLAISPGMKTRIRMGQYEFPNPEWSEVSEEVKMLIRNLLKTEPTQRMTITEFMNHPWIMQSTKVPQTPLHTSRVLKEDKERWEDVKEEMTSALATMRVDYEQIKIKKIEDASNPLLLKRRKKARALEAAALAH
Sequence of TLK1 (Q9UKI8 whole entry): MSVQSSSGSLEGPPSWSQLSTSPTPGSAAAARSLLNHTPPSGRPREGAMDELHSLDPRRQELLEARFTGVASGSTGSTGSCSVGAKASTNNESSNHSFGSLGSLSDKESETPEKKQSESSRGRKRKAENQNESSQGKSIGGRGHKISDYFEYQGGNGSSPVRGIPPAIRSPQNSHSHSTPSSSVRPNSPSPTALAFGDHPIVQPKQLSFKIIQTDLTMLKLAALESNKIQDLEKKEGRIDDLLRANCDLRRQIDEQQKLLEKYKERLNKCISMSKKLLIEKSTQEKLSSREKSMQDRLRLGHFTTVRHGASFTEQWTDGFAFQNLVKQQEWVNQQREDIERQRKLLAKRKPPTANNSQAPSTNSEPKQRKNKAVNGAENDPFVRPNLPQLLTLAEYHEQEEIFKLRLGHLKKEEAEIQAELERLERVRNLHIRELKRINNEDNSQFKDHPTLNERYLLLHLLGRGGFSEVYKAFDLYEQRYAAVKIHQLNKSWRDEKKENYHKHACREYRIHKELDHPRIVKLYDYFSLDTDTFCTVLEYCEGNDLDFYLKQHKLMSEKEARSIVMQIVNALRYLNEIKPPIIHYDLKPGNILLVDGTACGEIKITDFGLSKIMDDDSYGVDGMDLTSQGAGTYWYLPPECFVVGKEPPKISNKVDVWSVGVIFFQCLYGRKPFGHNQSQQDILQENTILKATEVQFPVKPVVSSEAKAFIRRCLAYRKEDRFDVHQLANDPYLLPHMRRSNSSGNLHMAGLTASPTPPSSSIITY
Sequence of ANKK1 (Q8NFD2 whole entry): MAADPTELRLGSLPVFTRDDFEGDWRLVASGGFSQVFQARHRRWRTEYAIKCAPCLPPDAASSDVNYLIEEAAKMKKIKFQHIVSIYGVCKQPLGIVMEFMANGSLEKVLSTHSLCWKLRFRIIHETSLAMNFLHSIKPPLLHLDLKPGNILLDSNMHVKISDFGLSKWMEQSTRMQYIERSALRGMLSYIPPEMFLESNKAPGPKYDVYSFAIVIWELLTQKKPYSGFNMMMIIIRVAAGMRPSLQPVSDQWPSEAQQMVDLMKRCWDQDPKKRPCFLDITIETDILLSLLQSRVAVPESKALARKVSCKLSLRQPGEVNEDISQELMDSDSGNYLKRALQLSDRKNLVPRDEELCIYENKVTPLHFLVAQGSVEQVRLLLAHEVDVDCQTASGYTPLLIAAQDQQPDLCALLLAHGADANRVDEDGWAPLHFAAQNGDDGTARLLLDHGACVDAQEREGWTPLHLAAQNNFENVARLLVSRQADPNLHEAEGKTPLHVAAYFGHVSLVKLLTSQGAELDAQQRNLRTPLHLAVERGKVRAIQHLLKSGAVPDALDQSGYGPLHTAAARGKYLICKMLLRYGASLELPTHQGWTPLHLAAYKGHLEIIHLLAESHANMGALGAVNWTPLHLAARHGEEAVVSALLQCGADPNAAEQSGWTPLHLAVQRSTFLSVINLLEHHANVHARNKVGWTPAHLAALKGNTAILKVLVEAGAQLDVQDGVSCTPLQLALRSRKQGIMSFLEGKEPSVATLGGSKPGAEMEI
T6 sequence (Q8IY84 whole entry): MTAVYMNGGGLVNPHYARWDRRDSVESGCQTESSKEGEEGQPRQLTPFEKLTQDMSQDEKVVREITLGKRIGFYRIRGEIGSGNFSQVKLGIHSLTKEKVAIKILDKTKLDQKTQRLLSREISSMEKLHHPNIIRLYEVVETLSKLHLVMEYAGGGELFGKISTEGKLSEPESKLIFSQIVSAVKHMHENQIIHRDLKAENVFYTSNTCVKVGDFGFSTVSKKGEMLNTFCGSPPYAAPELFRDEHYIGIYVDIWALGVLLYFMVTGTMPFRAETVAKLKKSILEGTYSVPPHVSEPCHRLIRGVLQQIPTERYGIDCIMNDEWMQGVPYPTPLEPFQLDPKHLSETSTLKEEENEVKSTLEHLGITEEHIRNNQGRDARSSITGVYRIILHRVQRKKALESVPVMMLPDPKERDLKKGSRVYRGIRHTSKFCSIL
Sequence of CAMKK2 (Q96RR4 whole entry): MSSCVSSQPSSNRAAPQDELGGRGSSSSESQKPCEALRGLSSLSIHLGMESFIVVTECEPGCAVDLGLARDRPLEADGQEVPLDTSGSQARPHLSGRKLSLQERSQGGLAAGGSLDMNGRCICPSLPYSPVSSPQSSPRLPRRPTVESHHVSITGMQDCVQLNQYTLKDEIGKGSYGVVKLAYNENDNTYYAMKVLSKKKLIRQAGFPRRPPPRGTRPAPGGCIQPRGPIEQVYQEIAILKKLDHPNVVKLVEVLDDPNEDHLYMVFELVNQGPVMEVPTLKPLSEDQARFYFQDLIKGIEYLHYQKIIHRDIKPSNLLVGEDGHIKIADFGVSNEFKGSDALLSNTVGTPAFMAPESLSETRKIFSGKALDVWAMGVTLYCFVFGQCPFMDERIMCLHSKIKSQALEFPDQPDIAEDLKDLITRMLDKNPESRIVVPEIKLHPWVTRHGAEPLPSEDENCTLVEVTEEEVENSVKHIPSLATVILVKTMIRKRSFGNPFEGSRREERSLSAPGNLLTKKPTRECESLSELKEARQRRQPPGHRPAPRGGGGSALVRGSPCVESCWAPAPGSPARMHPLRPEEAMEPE

CC#CC(=O)N1CCC[C@H]1c1nc(-c2ccc(C(=O)Nc3ccccn3)cc2)c2c(N)nccn12 [Acalabrutinib]
remaining binding at 0.3 µM [1, 2]: 81%
remaining binding at 0.3 µM (AMPK-alpha2; [2]): 96%
remaining binding at 0.3 µM (ANKK1; [2]): 58%
remaining binding at 0.3 µM (CAMKK2; [2]): 97%
remaining binding at 0.3 µM (CDKL1; [2]): 93%
remaining binding at 0.3 µM (ERK8; [2]): 88%
remaining binding at 0.3 µM (FGFR4; [2]): 91%
remaining binding at 0.3 µM (FLT3(D835Y); [2]): 82%
remaining binding at 0.3 µM (GSK3A; [2]): 74%
remaining binding at 0.3 µM (LKB1; [2]): 94%
remaining binding at 0.3 µM (MAPKAPK2; [2]): 72%
remaining binding at 0.3 µM (MEK3; [2]): 99%
remaining binding at 0.3 µM (NIM1; [2]): 99%
remaining binding at 0.3 µM (PAK4; [2]): 93%
remaining binding at 0.3 µM (PFTK1; [2]): 89%
remaining binding at 0.3 µM (RAF1; [2]): 75%
remaining binding at 0.3 µM (RET(V804L); [2]): 99%

C=CC(=O)N1CCC[C@@H](n2nc(-c3ccc(Oc4ccccc4)cc3)c3c(N)ncnc32)C1 [Ibrutinib]
remaining binding at 0.3 µM (AMPK-alpha2; [3]): 97%
remaining binding at 0.3 µM (FGFR1; [3]): 66%
remaining binding at 0.3 µM (FLT3(D835H); [3]): 25%
remaining binding at 0.3 µM (MEK3; [3]): 93%
remaining binding at 0.3 µM (MST4; [3]): 89%
remaining binding at 0.3 µM (MYLK4; [3]): 94%
remaining binding at 0.3 µM (PDPK1; [3]): 99%
remaining binding at 0.3 µM (TLK1; [3]): 80%

CC#CC(=O)N1CC[C@@H](n2c(=O)n(-c3ccc(Oc4ccccc4)cc3)c3c(N)ncnc32)C1 [Tirabrutinib]
remaining binding at 0.3 µM [1, 4]: 57%
remaining binding at 0.3 µM (FLT3(D835H); [4]): 95%

C=CC(=O)N1CCC([C@@H]2CCNc3c(C(N)=O)c(-c4ccc(Oc5ccccc5)cc4)nn32)CC1 [Zanubrutinib]
remaining binding at 0.3 µM (ANKK1; [5]): 100%
remaining binding at 0.3 µM (CAMKK2; [5]): 87%
remaining binding at 0.3 µM (CDKL1; [5]): 82%
remaining binding at 0.3 µM (ERK8; [5]): 87%
remaining binding at 0.3 µM (FGFR1; [5]): 68%
remaining binding at 0.3 µM (FGFR4; [5]): 91%
remaining binding at 0.3 µM (FLT3(D835Y); [5]): 47%
remaining binding at 0.3 µM (GSK3A; [5]): 98%
remaining binding at 0.3 µM (LKB1; [5]): 84%
remaining binding at 0.3 µM (MAPKAPK2; [5]): 96%
remaining binding at 0.3 µM (MST4; [5]): 63%
remaining binding at 0.3 µM (MYLK4; [5]): 96%
remaining binding at 0.3 µM (NIM1; [5]): 97%
remaining binding at 0.3 µM (PAK4; [5]): 85%
remaining binding at 0.3 µM (PDPK1; [5]): 100%
remaining binding at 0.3 µM (PFTK1; [5]): 92%
remaining binding at 0.3 µM (RAF1; [5]): 88%
remaining binding at 0.3 µM (RET(V804L); [5]): 100%
remaining binding at 0.3 µM (TLK1; [5]): 92%
